Laboratory results taken from PMC8075848 (Cell Reports, 2021).
Read-outs that look alike come from different tables or passages of the source.

Key:
[1] = target: SARS-CoV-2 PL^pro (Severe acute respiratory syndrome coronavirus 2, UniProt P0DTD1); assay type: biochemical; details: for PL^pro protease activity inhibition, in words: 20 μM drug (grazoprevir in Fig S6: 100 µM)
[2] = target: T1, SARS-CoV-2 M^pro (Severe acute respiratory syndrome coronavirus 2, UniProt P0DTD1); experiment: M^pro FRET proteolysis inhibition assay; assay type: biochemical; details: 20 μM drug, 10 nM M^pro
[3] = tested on: Vero E6 cells; details: MTT
[4] = tested on: SARS-CoV-2; experiment: Antiviral combination assay with remdesivir in Vero E6 cells; assay type: cell-based; details: for Effect of HCV drug on the antiviral activity of remdesivir, in words / Effect of remdesivir on the antiviral activity (IC90) of the HCV drug, in words: Vero cells; for Effect of HCV drug on the antiviral activity of remdesivir, in words: IC90 of remdesivir with increasing HCV drug; for Effect of remdesivir on the antiviral activity (IC90) of the HCV drug, in words: addition of 1.25 μM remdesivir
[5] = tested on: SARS-CoV-2; experiment: Time-of-addition assay; assay type: cell-based; details: BOC 50 μM, GRZ 25 μM, NAR 50 μM, VAN 5 μM, SIM 5 μM, added -2, 0, +2, +4 h
[6] = tested on: SARS-CoV-2; details: ref Lo et al., 2021; cited from earlier work
[7] = tested on: PL^pro; details: ref Anson et al., 2020; cited from earlier work
[8] = target: T1, SARS-CoV-2 M^pro; experiment: M^pro 1D 1H-NMR proteolysis inhibition assay; assay type: biochemical; details: 50 μM inhibitor, 100 nM M^pro
[9] = tested on: SARS-CoV-2; experiment: SARS-CoV-2 replication inhibition in Vero E6 cells; assay type: cell-based; details: up to 50 μM drug
[10] = tested on: M^pro; details: cited from earlier work; for Inhibition of M^pro proteolytic activity: ref Anson et al., 2020, Fu et al., Kneller et al., 2020a, Ma et al.
[11] = tested on: SARS-CoV-2; details: ref Anson et al., 2020, Fu et al., Ma et al.; cited from earlier work
[12] = tested on: SARS-CoV-2; assay type: cell-based
[13] = tested on: SARS-CoV-2; assay type: cell-based; remark: listed apart in the source

| SMILES | PL^pro protease activity inhibition, in words [1] | M^pro inhibition activity in FRET assay, in words [2] | Synergy Score (ZIP, SynergyFinder) with remdesivir [4] | M^pro inhibitory activity in 1D 1H-NMR assay, in words [8] | Inhibition of virus replication in Vero E6 cells, in words [9] | other results |
| --- | --- | --- | --- | --- | --- | --- |
| COc1ccc2c(O[C@@H]3C[C@H]4C(=O)N[C@]5(C(=O)NS(=O)(=O)C6CC6)C[C@H]5/C=C\CCCCN(C)C(=O)[C@@H]4C3)cc(-c3nc(C(C)C)cs3)nc2c1C [SIM, Simeprevir] | inhibit | not detected | +30.2 | moderate inhibitory activity | inhibited virus replication with low IC50 values | Cytotoxicity in Vero E6 cells, in words [3]: some cytotoxicity was also observed; Effect of HCV drug on the antiviral activity of remdesivir, in words [4]: increase the antiviral activity of remdesivir; Effect of remdesivir on the antiviral activity (IC90) of the HCV drug, in words [4]: substantially reduces; Inhibition of virus replication by time of drug addition, in words [5]: inhibited by the addition of these drugs as late as 4 h post-infection; Interaction with remdesivir [6]: synergistically; Inhibition of PL^pro [7]: inhibit |
| CCCC[C@H](NC(=O)[C@@H]1[C@@H]2[C@H](CN1C(=O)[C@@H](NC(=O)NC1(CS(=O)(=O)C(C)(C)C)CCCCC1)C(C)(C)C)C2(C)C)C(=O)C(=O)NC1CC1 [NAR, Narlaprevir] | – | – | – | substantial enzyme inhibition activity | inhibited SARS-CoV-2 virus replication at concentrations significantly lower than the concentrations that cause cytotoxicity | Inhibition of M^pro proteolytic activity [10]: inhibit |
| CC(C)(C)NC(=O)N[C@H](C(=O)N1C[C@H]2[C@@H]([C@H]1C(=O)NC(CC1CCC1)C(=O)C(N)=O)C2(C)C)C(C)(C)C (stereo partly shown) [BOC, Boceprevir] | – | – | −7.6 | substantial enzyme inhibition activity | inhibited SARS-CoV-2 virus replication at concentrations significantly lower than the concentrations that cause cytotoxicity | Inhibition of SARS-CoV-2 replication in Vero cells [11]: inhibit; Effect of HCV drug on the antiviral activity of remdesivir, in words [4]: did not significantly affect the antiviral activity of remdesivir; Effect of remdesivir on the antiviral activity (IC90) of the HCV drug, in words [4]: did not significantly affect; Inhibition of M^pro proteolytic activity [10]: inhibit |
| CCC(CC)COC(=O)[C@H](C)N[P@](=O)(OC[C@H]1O[C@@](C#N)(c2ccc3c(N)ncnn23)[C@H](O)[C@@H]1O)Oc1ccccc1 [Remdesivir, remdesivir] | – | – | – | – | – | Inhibition of virus replication by time of drug addition, in words [5]: decreased its ability to suppress virus infection |
| Cc1cnc(C(=O)N[C@H]2CCCCC/C=C\[C@@H]3C[C@@]3(C(=O)NS(=O)(=O)C3CC3)NC(=O)[C@@H]3C[C@@H](Oc4nc5ccccc5c5ccccc45)CN3C2=O)cn1 [PAR, Paritaprevir] | inhibit | does not inhibit | +17.3 | does not inhibit | inhibited SARS-CoV-2 virus replication at concentrations significantly lower than the concentrations that cause cytotoxicity | – |
| C=C[C@@H]1C[C@]1(NC(=O)[C@@H]1C[C@@H]2CN1C(=O)[C@H](C(C)(C)C)NC(=O)O[C@@H]1C[C@H]1CCCCCc1nc3ccc(OC)cc3nc1O2)C(=O)NS(=O)(=O)C1CC1.O [GRZ, Grazoprevir] | inhibit | not detected | +25.0 | moderate inhibitory activity | inhibited SARS-CoV-2 virus replication at concentrations significantly lower than the concentrations that cause cytotoxicity | PL^pro initial rate relative to absence of inhibitor (vo/vo,i) ([1]; 100 μM drug concentration): 32% ± 7%; Effect of HCV drug on the antiviral activity of remdesivir, in words [4]: increase the antiviral activity of remdesivir; Effect of remdesivir on the antiviral activity (IC90) of the HCV drug, in words [4]: substantially reduces; Interaction with remdesivir (additive / synergistic) [12]: synergistic (key: a synergistic interaction between drugs has a score greater than +10; an additive interaction has a score between −10 to +10; an antagonistic interaction has a score of less than −10); Synergy Score (ZIP, SynergyFinder) with remdesivir [12]: +20.3; Inhibition of virus replication by time of drug addition, in words [5]: inhibited by the addition of these drugs as late as 4 h post-infection; Inhibition of PL^pro [7]: inhibit |
| CCC[C@H](NC(=O)[C@@H]1[C@H]2CCC[C@H]2CN1C(=O)[C@@H](NC(=O)[C@@H](NC(=O)c1cnccn1)C1CCCCC1)C(C)(C)C)C(=O)C(=O)NC1CC1 [TEL, Telaprevir] | – | – | – | substantial enzyme inhibition activity | did not inhibit virus replication | Inhibition of M^pro proteolytic activity [10]: inhibit |
| CC(C)(C)[C@@H]1NC(=O)O[C@@H]2CCC[C@H]2OC/C=C/C(F)(F)c2nc3ccccc3nc2O[C@@H]2C[C@@H](C(=O)N[C@]3(C(=O)NS(=O)(=O)C4(C)CC4)C[C@H]3C(F)F)N(C2)C1=O [GLE, Glecaprevir] | – | – | – | – | did not inhibit virus replication | Inhibition of virus replication in human 293T cells, in words [13]: did not inhibit virus replication |
| C=C[C@@H]1C[C@]1(NC(=O)[C@@H]1C[C@@H](Oc2ncc(OC)c3ccc(Cl)cc23)CN1C(=O)[C@@H](NC(=O)OC(C)(C)C)C(C)(C)C)C(=O)NS(=O)(=O)C1CC1 [ASU, Asunaprevir] | – | not detected | – | moderate inhibitory activity | inhibited SARS-CoV-2 virus replication at concentrations significantly lower than the concentrations that cause cytotoxicity | Inhibition of PL^pro [7]: inhibit; Inhibition of virus replication in human 293T cells, in words [13]: did not inhibit viral replication in human cells at concentrations lower than those exhibiting cytotoxicity |
| CC(C)(C)OC(=O)N[C@H]1CCCCC/C=C\[C@@H]2C[C@@]2(C(=O)NS(=O)(=O)C2CC2)NC(=O)[C@@H]2C[C@@H](OC(=O)N3Cc4cccc(F)c4C3)CN2C1=O [DAN, Danoprevir] | – | – | – | – | did not inhibit virus replication | Inhibition of virus replication in human 293T cells, in words [13]: did not inhibit virus replication |
| CC(C)C[C@H](NC(=O)OCc1ccccc1)C(=O)N[C@@H](CC1CCNC1=O)C(O)S(=O)(=O)[O-].[Na+] (stereo partly shown) [GC-376] | – | – | – | – | – | Interaction with remdesivir (additive / synergistic) ([4]; combination with remdesivir, Vero E6 cells): additive (an additive interaction has a score between −10 to +10); Specificity for M^pro relative to PL^pro ([10]; ref Sacco et al., 2020): specific |
| CC[C@@H]1C[C@]1(NC(=O)[C@@H]1C[C@@H]2CN1C(=O)[C@H](C(C)(C)C)NC(=O)OCC(C)(C)CCCCc1cccc3c1CN(C3)C(=O)O2)C(=O)NS(=O)(=O)C1CC1 [VAN, Vaniprevir] | inhibit | not detected | – | substantial inhibitory activity | inhibited virus replication with low IC50 values | Cytotoxicity in Vero E6 cells, in words [3]: some cytotoxicity was also observed |
